Measured values: US8765748B2, “Indazolyl, benzimidazolyl, benzotriazolyl substituted indolinone derivatives as kinase inhibitors useful in the treatment of cancer” (University Health Network, priority 2007, dated 2014)
Where two headings read alike, the source gives them in different places.

What was measured:
[1] = target: T1, human PLK4 (Homo sapiens, UniProt O00444); assay: PLK4 Inhibition Assay (indirect ELISA); type: biochemical; settings: 15 μM ATP, 4 nM GST-PLK4; read-out: PLK4 IC50 Ranges
T1 construct: amino terminal GST fusion of residues 1-391 of human PLK4; made in house; host or cells: E. coli
T1 sequence (O00444 1-391): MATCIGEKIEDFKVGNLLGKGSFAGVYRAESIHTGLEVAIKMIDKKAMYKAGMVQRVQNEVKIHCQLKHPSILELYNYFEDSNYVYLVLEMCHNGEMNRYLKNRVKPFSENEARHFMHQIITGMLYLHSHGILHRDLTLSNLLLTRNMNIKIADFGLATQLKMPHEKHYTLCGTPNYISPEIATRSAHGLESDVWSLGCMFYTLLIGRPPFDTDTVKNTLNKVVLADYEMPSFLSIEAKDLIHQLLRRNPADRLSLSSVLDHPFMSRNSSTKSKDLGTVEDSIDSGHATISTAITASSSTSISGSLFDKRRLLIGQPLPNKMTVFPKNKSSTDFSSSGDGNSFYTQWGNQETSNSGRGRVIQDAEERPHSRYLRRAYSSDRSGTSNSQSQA
Method in brief: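 Dephosphorylated (lambda phosphatase) GST-PLK4 activity read by indirect ELISA. Compounds were pre-incubated with enzyme for 15 minutes before ATP was added. IC50 came from a non-linear 4-point logistic fit.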

[2] = target: T2, PLK1 (Homo sapiens, UniProt P53350); assay: PLK1 Inhibition Assay (Z-Lyte); type: biochemical; settings: for inhibition at 10 µM: 10 μM compound, read-out: PLK1 relative inhibition percentage at a dose of 10 μM; for IC50: 25 μM ATP, 8 nM PLK1, read-out: PLK1 IC50 Ranges
T2 construct: purchased Invitrogen PV3501
T2 sequence (P53350 whole entry): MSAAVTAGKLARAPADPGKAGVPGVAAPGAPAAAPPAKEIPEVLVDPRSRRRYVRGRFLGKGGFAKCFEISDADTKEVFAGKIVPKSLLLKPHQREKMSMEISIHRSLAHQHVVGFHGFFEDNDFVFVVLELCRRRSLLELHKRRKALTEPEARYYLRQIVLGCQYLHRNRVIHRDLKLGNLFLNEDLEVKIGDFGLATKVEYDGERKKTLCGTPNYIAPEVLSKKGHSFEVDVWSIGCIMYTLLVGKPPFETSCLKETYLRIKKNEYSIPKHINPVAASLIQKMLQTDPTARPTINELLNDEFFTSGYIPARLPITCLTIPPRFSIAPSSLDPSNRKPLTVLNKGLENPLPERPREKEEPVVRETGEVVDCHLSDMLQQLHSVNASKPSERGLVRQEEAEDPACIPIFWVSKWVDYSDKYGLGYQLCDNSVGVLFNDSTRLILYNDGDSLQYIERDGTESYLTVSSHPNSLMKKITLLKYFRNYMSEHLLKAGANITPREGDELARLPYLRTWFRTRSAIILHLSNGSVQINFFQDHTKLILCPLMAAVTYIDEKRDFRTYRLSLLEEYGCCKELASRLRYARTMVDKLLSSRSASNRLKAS
Protocol: PLK1 inhibition was determined using the Z-Lyte assay kit from Invitrogen (cat #PV3802). […] The % inhibition values were determined according to the manufacturer's directions and IC50 values were obtained using a non-linear 4 point logistic curve fit (XLfit4, IDBS)

[3] = target: T3, PLK2 (Homo sapiens, UniProt Q9NYY3); assay: PLK2 Inhibition Assay (Z-Lyte); type: biochemical; settings: 10 μM compound; read-out: PLK2 relative inhibition percentage at a dose of 10 μM
T3 construct: purchased Invitrogen PV4204
T3 sequence (Q9NYY3 whole entry): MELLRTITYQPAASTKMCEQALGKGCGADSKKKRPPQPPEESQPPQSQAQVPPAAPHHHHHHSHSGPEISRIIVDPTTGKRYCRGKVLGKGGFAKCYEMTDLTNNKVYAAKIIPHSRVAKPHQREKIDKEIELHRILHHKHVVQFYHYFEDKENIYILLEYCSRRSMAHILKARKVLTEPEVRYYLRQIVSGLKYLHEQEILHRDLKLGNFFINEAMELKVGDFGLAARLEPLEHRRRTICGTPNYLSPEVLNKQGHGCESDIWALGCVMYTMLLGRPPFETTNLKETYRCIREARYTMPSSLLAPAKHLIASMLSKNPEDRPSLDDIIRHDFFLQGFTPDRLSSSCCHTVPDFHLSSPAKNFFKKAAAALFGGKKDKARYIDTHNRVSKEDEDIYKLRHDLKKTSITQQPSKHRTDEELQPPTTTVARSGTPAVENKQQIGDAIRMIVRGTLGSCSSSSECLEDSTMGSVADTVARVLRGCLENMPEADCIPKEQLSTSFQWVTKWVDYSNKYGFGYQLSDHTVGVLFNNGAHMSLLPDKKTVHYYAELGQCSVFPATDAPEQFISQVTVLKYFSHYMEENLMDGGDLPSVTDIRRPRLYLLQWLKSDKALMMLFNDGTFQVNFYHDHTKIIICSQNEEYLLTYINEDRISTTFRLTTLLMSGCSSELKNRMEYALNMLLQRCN
Protocol: (§1) PLK2 inhibition was determined using the Z-Lyte assay kit from Invitrogen (cat #PV3802). The assay was performed using the recommended manufacturer's instructions with 60 μM ATP and 133 nM PLK2 (Invitrogen cat #PV4204). The % inhibition values were determined according to the manufacturer's directions and IC50 values were obtained using a non-linear 4 point logistic curve fit (XLfit4, IDBS)

[4] = target: T4, Aurora A (Homo sapiens, UniProt O14965); assay: Aurora A Inhibition Assay (Z-Lyte); type: biochemical; settings: for IC50: 20 μM ATP, 12 nM Aurora A, read-out: Aurora A IC50 Ranges
T4 construct: purchased Invitrogen PV3612
T4 sequence (O14965 1-403): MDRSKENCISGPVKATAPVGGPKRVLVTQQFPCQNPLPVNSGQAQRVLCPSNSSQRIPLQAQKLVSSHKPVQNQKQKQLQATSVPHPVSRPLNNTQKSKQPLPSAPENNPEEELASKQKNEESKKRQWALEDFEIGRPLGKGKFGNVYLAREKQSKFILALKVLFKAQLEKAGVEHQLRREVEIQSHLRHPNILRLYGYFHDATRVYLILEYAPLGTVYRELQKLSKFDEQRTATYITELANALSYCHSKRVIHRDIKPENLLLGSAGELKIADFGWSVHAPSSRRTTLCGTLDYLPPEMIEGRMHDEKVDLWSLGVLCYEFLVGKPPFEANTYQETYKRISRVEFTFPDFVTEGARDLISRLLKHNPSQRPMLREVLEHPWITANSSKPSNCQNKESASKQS
Protocol: as §1, with “Aurora A” for “PLK2”, “Invitrogen.” for “Invitrogen (cat #PV3802).”, “20” for “60”, “12” for “133”, “#PV3612).” for “#PV4204).”

[5] = target: T5, Aurora B (Homo sapiens, UniProt Q96GD4); assay: Aurora B Inhibition Assay (Z-Lyte); type: biochemical; settings: 128 μM ATP, 28 nM Aurora B; read-out: Aurora B IC50 Ranges
T5 construct: purchased Invitrogen PV3970
T5 sequence (Q96GD4 whole entry): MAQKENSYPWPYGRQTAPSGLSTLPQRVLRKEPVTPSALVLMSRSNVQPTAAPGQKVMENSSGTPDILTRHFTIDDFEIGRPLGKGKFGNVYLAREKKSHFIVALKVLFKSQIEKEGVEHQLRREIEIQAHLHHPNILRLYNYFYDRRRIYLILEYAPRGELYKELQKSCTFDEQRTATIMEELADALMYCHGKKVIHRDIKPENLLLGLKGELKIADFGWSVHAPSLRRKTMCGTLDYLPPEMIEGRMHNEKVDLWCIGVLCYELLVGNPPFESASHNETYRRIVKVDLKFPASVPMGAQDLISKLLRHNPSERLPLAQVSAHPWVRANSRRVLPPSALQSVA
Protocol: as §1, with “Aurora B” for “PLK2”, “Invitrogen.” for “Invitrogen (cat #PV3802).”, “128” for “60”, “28” for “133”, “#PV3970).” for “#PV4204).”

[6] = test system: HCC1954 basal breast cancer cell line; assay: Cell growth inhibition, Sulforhodamine B assay (SRB); type: cell-based; settings: Homo sapiens, HCC1954, 120 h, 5 days culture, read-out: Cell Line GI50 Range, HCC-1954
Protocol: (§2) Breast cancer cells (MCF-7, MDA-MB-468, HCC1954), colon cancer cells (SW620) and lung cancer cells (A549), together with human mammary epithelial primary cells (HMEC), were seeded (1000 to 4000 per 80 μl per well depending on the cell growth rate) into 96 well plates, 24 hours before compound overlay. Compounds were prepared as 10 mM stock solutions in 100% DMSO which were diluted with DMEM (Dulbecco's Modified Eagle's Medium) cell growth Medium (Invitrogen, Burlington, ON, Canada) containing 10% FBS (Fetal Bovine Serum) to concentrations ranging from 50 nM to 250 μM. Aliquots (20 μl) from each concentration were overlaid to 80 μl of the pre-seeded cells in the 96 well plates to make final concentrations of 10 nM to 50 μM. The cells were cultured for 5 days before the Sulforhodamine B assay (SRB) was performed to determine the compound's cell growth inhibition activity.
(§3) Sulforhodamine B (purchased from Sigma, Oakville, ON, Canada) is a water-soluble dye that binds to the basic amino acids of the cellular proteins. Thus, colorimetric measurement of the bound dye provides an estimate of the total protein mass that is related to the cell number. the cells are fixed in situ by gently aspirating off the culture media and adding 50 μl ice cold 10% Tri-chloroacetic Acid (TCA) per well and incubate at 4° C. for 30-60 min, The plates are washed with water five times and allowed to air dry for 5 min. Addition of 50 μl 0.4% (w/v) SRB solution in 1% (v/v) acetic acid to each well and incubatation for 30 min at RT completes the staining reaction. Following staining, plates are washed four times with 1% acetic acid to remove unbound dye and then allowed to air dry for 5 min. The stain is solubilized with 100 μl of 10 mM Tris pH10.5 per well. Absorbance is read at 570 nm.
(§4) The percentage (%) of relative growth inhibition was calculated by comparing to DMSO treated only cells (100%). GI50's were determined for compounds with cytotoxic activity. The GI50 was calculated using GraphPad PRISM software (GraphPad Software, Inc., San Diego, Calif., USA).

[7] = test system: MCF-7 luminal breast cancer cell line; assay: as above; type: cell-based; settings: Homo sapiens
Protocol: as §2, §3, §4

[8] = test system: MDA-MB-468 basal breast cancer cell line; assay: as above; type: cell-based; settings: Homo sapiens
Protocol: as §2, §3, §4

[9] = test system: SW620 colon cancer cells; assay: as above; type: cell-based; settings: Homo sapiens, SW-620, 120 h, 5 days culture, read-out: Cell Line GI50 Range, SW-620
Protocol: as §2, §3, §4

[10] = test system: human mammary epithelial primary cells (HMEC); assay: as above; type: cell-based; settings: 120 h, 5 days culture, read-out: Cell Line GI50 Range, HMEC
Protocol: as §2, §3, §4

[11] = test system: T47 D breast cancer cell line; assay: Cell growth inhibition, SRB assay, extended panel; type: cell-based; settings: Homo sapiens, T47D; read-out: GI50 on T47D Breast cancer cell line
Protocol: as §2, §3, §4
In addition to the cell lines tested as described above, selected compounds have been assayed against an extended panel. […] The sulforhodamine B assay (SRB) described above was use to assay test compounds against the extended panel (Table 9).

[12] = test system: A549 lung cancer cells; assay: Cell growth inhibition, Sulforhodamine B assay (SRB); type: cell-based; settings: Homo sapiens, A549, 120 h, 5 days culture, read-out: Cell Line GI50 Range, A-549
Protocol: as §2, §3, §4

[13] = MCF7, 120 h, 5 days culture, SRB, read-out: Cell Line GI50 Range, MCF-7
[14] = MDA-MB-468, 120 h, 5 days culture, SRB, read-out: Cell Line GI50 Range, MDA-MB-468
[15] = MCF7, read-out: GI50 on MCF-7 Breast cancer cell line
[16] = MDA-MB-468, read-out: GI50 on MDA-MB-468 Breast cancer cell line

IC50 [1]	inhibition at 10 µM [2]	inhibition at 10 µM [3]	IC50 [4]	IC50 [5]	GI50 [6]	GI50 [7, 13]	GI50 [8, 14]	GI50 [9]	GI50 [7, 15]	GI50 [8, 16]	GI50 [11]	GI50 [12]	inhibition at 10 µM ([4]; 10 μM compound, read-out: Aurora A relative inhibition percentage at a dose of 10 μM)	IC50 [2]	SMILES	GI50 [10]
< 5 µM									> 50 µM	> 50 µM	> 50 µM				O=C(O)/C=C/c1n[nH]c2cc(/C=C3/C(=O)Nc4ccccc43)ccc12 [Example A70, (E)-3-(6-((E)-(2-oxoindolin-3-ylidene)methyl)-1H-indazol-3-yl)acrylic acid]	
< 5 µM	< 50%	< 50%	< 5 µM	< 5 µM	5 to 20 µM	< 5 µM	< 5 µM	< 5 µM				> 50 µM			O=C1Nc2ccc(Cl)cc2/C1=C\c1ccc2c(/C=C/c3ccncc3)n[nH]c2c1 [Example A84, (E)-5-chloro-3-((3-((E)-2-(pyridin-4-yl)vinyl)-1H-indazol-6-yl)methylene)indolin-2-one]	> 50 µM
< 5 µM	< 50%	< 50%	< 5 µM						> 50 µM	> 50 µM	> 50 µM				CCOC(=O)/C=C/c1n[nH]c2cc(/C=C3/C(=O)Nc4ccc(OC)cc43)ccc12 [Example A111, (E)-ethyl 3-(6-((E)-(5-methoxy-2-oxoindolin-3-ylidene)methyl)-1H-indazol-3-yl)acrylate]	
	< 50%	< 50%			5 to 20 µM	< 5 µM	< 5 µM	< 5 µM				5 to 20 µM	> 50%		Cc1ncsc1/C=C/c1n[nH]c2cc(/C=C3/C(=O)Nc4ccccc43)ccc12 [Example A103, (E)-3-((3-((E)-2-(4-methylthiazol-5-yl)vinyl)-1H-indazol-6-yl)methyl-ene)indolin-2-one]	> 50 µM

More lines, now with the values behind:

SMILES	IC50 [1]	inhibition at 10 µM [2]	inhibition at 10 µM [3]	IC50 [4]	IC50 [5]	GI50 [6]	GI50 [7, 13]	GI50 [8, 14]	GI50 [9]	GI50 [7, 15]	GI50 [8, 16]	GI50 [11]	GI50 [12]	inhibition at 10 µM ([4]; 10 μM compound, read-out: Aurora A relative inhibition percentage at a dose of 10 μM)	IC50 [2]	GI50 [10]
O=C1Nc2ccccc2/C1=C\c1ccc2c(-c3cccs3)n[nH]c2c1 [Example A91, (E)-3-((3-(thiophen-2-yl)-1H-indazol-6-yl)methylene)indolin-2-one]	< 5 µM	< 50%	< 50%	5 to 50 µM	< 5 µM	< 5 µM	< 5 µM	< 5 µM	< 5 µM							5 to 20 µM
CNS(=O)(=O)c1ccc2c(c1)C(=Cc1ccc3[nH]nnc3c1)C(=O)N2 [Example A7, 3-((1H-benzo[d][1,2,3]triazol-5-yl)methylene)-N-methyl-2-oxoindoline-5-sulfonamide]	< 5 µM									> 50 µM	> 50 µM	> 50 µM			5 to 50 µM	
CNS(=O)(=O)c1ccc2c(c1)C(=Cc1ccc3cn[nH]c3c1)C(=O)N2 (mixture of isomers) [Example A9, (E and Z)-3-((1H-indazol-6-yl)methylene)-N-methyl-2-oxoindoline-5-sulfonamide]	< 5 µM									> 50 µM	> 50 µM	> 50 µM			< 5 µM	
